Calls of active or inactive are those of the source.
How the values were obtained:
[1] = NIH-3T3 fibroblast cytotoxicity, dose response, cytotoxicity control, cell-based, fluorescence, Alamar Blue, secondary assay (AID 2327); type: functional;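 also: NIH-3T3 mouse fibroblasts cultured with fluconazole at 8 µg/mL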
[2] = tested on: Streptococcus sp. 'group A'; test: growth inhibition of control SK(-) GAS strain, dose response, counter-screen for streptokinase expression inhibitor project, luminescence, kanamycin, BacTiterGlo, confirmation (AID 1900); type: functional, organism-based
Streptokinase A = molecular target: T1, Streptokinase A (Streptococcus pyogenes serotype M1, UniProt P10520); test: S. pyogenes streptokinase expression inhibitors, potency, dose response, plasminogen activation absorbance, OD405 (AID 1914); type: functional, Streptococcus pyogenes M1 GAS;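 also: secreted streptokinase activity via plasminogen activation per viability signal from cell pellet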
T1 sequence (P10520 whole entry): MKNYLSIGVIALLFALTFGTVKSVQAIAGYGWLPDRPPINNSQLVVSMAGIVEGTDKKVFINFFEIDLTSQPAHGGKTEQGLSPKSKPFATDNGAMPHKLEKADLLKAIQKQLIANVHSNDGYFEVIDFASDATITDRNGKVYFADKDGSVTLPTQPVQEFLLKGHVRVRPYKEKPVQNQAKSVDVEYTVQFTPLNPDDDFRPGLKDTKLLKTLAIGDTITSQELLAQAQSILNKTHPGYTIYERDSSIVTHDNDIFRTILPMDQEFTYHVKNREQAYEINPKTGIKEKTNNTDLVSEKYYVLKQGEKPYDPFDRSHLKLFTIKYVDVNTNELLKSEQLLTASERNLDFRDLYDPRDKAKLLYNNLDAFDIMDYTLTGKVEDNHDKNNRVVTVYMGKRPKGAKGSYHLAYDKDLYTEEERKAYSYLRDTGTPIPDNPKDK

[3] = C. albicans growth with fluconazole, confirmation, fluorescence, retest (AID 2467); type: functional, cell-based
Streptococcus = test: Group A Streptococcus viability loss, dose response, counter-screen for streptokinase expression inhibitor project, luminescence, BacTiterGlo (AID 1915); type: functional, organism-based;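 also: potency for reduction of bacterial viability or growth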
Escherichia coli = test: microbe, parasite or virus in culture
HeLa = test: HeLa cell cytotoxicity, dose response, cytotoxicity control for MITF activator project, CellTiter-Glo luminescence, cherry-pick samples (AID 540259); type: functional, cell-based; conditions: Homo sapiens
[4] = growth suppression of PTEN-null colon cells, dose response, cell-based, HCT116 PTEN knockout (AID 1047); type: functional;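 also: HCT116 colon tumor cells with PTEN knocked out; cells exposed to compound for 60 hours before readout; potency for loss of cell viability measured by luminescence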
[5] = growth suppression of beta-catenin-knockout colon cells, dose response, cell-based, HCT116, human colon tumor (AID 1045); type: functional;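 also: HCT116 colon tumor cells with beta catenin knocked out; cells exposed to compound for 60 hours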
Vero = test: cells; type: functional; conditions: Chlorocebus sabaeus
[6] = molecular target: Dual specificity tyrosine-phosphorylation-regulated kinase 1A (Rattus norvegicus, UniProt Q63470); type: biochemical, Homo sapiens
[7] = molecular target: 26S proteasome non-ATPase regulatory subunit 14 (Homo sapiens, UniProt O00487); test: inhibition of proteasome subunit RPN11 – biochemical, fluorescence polarization, uHTS hits, confirmation (AID 602368); type: functional
[8] = molecular target: 72 kDa type IV collagenase (Homo sapiens, UniProt P08253); test: Dose Response validation of uHTS RPN11 inhibitor hits using a MMP-2 Fluorescence assay.; type: functional
Prothrombin = Prothrombin (Bos taurus, UniProt P00735); test: thrombin inhibition, dose response, biochemical, fluorescence polarization, uHTS hits (AID 602369); type: functional
[9] = inhibitors of intracellular T. cruzi replication, confirmation, NIH3T3 host cells, beta-gal luminescence (AID 2044); type: functional, cell-based;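 also: intracellular parasites grown in NIH/3T3 mouse fibroblasts as host cells; luminescent beta-galactosidase reporter signal from transgenic T. cruzi replicating inside host cells; inhibitors lower the luminescence signal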
[10] = cytotoxicity toward NIH3T3 fibroblasts, dose response, counter-screen, cell-based, ATP luminescence, mouse fibroblasts (AID 2010); type: functional;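 also: cells exposed to compound for about 90 hours before reading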
SUMO E1/E2 = SUMO E1/E2 (Homo sapiens, UniProt P63279+Q9UBE0+Q9UBT2); test: SAR analysis of SUMOylation using HTRF in an in-Vitro dose response assay. [Related pubchem assays (depositor defined):AID2006, AID2011, AID2018, AID2069, AID2658]; type: functional
Hexokinase-1 = Hexokinase-1 (Homo sapiens, UniProt P19367); test: HK1 enzyme inhibition by HKDC1 hits, SAR follow-up, selectivity assay for HKDC1 inhibitor project, biochemical, set 2, resazurin fluorescence coupled readout (AID 588356); type: functional
Hexokinase HKDC1 = molecular target: T2, Hexokinase HKDC1 (Homo sapiens, UniProt Q2TB90); test: HKDC1 hexokinase inhibitors, SAR follow-up, biochemical, set 2 (AID 588355); type: functional
T2 sequence (Q2TB90 whole entry): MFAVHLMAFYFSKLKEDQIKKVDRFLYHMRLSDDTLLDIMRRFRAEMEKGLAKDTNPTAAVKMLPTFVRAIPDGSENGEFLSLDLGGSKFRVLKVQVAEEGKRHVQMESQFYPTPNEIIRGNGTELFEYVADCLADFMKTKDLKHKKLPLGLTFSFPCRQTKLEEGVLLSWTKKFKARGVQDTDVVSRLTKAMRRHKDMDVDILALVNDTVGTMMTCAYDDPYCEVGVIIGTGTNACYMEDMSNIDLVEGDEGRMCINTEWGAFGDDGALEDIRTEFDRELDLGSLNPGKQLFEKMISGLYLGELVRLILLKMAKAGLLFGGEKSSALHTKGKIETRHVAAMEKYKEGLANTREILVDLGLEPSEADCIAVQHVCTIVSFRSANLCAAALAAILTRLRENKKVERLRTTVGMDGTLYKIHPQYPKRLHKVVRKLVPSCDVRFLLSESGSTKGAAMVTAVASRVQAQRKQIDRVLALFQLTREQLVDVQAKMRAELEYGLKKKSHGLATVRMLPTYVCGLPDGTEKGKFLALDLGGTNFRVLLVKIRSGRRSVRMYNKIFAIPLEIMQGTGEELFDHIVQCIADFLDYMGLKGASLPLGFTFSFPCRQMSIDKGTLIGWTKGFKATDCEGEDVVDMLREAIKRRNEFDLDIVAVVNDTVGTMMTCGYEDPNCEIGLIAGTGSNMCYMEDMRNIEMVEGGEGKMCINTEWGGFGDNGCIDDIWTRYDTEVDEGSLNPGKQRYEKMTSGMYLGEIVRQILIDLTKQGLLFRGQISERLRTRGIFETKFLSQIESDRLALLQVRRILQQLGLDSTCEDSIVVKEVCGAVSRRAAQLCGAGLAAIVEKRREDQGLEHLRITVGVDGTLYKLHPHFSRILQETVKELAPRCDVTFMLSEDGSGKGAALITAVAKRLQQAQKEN

Caspase-3 = molecular target: T3, Caspase-3 (Homo sapiens, UniProt P42574); type: functional;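 also: Dose-response selectivity test against caspase-3 for candidate inhibitors of sentrin-specific proteases (SENPs)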
T3 sequence (P42574 whole entry): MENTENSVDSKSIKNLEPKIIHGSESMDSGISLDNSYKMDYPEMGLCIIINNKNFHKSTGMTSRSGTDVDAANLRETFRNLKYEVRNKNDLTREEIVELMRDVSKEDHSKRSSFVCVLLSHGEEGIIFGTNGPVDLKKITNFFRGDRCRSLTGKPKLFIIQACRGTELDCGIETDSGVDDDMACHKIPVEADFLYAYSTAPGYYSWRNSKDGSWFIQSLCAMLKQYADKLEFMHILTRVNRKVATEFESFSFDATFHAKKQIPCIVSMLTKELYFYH

[11] = molecular target: T4, Sentrin-specific protease 7 (Homo sapiens, UniProt Q9BQF6); type: functional;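 also: Luminescence-based dose-response confirmation of ultra-high-throughput screening hits, measuring inhibition of SENP7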
T4 sequence (Q9BQF6 whole entry): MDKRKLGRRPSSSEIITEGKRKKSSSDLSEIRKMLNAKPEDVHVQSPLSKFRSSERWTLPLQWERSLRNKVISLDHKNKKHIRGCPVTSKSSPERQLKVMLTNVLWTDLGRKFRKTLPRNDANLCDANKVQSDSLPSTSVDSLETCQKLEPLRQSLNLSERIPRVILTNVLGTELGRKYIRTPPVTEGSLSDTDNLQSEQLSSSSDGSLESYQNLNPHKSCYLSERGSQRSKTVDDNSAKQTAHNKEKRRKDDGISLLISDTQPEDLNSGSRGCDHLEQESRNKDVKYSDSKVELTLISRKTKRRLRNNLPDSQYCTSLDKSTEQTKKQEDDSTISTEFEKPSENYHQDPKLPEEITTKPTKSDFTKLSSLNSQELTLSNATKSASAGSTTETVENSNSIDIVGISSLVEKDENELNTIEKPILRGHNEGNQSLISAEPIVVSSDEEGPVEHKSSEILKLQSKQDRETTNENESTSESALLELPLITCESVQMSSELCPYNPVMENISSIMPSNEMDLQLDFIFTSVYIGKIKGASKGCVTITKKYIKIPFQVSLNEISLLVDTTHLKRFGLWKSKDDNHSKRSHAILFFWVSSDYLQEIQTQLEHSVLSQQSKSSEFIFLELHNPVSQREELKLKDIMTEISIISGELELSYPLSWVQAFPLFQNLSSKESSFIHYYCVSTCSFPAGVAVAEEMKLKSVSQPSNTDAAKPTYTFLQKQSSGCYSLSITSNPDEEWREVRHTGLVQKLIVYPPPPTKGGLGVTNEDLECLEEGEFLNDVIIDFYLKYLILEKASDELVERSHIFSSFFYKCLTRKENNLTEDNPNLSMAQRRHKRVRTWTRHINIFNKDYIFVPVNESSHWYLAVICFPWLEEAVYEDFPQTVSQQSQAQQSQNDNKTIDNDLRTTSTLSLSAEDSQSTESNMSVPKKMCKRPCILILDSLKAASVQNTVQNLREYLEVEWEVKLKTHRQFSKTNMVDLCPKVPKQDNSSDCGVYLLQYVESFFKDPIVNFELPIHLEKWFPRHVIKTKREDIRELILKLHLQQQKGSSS

[12] = molecular target: T5, Sentrin-specific protease 6 (Homo sapiens, UniProt Q9GZR1); type: functional;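 also: Luminescence-based dose-response confirmatory assay of SENP6 inhibition, following up an ultra-high-throughput screen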
T5 sequence (Q9GZR1 whole entry): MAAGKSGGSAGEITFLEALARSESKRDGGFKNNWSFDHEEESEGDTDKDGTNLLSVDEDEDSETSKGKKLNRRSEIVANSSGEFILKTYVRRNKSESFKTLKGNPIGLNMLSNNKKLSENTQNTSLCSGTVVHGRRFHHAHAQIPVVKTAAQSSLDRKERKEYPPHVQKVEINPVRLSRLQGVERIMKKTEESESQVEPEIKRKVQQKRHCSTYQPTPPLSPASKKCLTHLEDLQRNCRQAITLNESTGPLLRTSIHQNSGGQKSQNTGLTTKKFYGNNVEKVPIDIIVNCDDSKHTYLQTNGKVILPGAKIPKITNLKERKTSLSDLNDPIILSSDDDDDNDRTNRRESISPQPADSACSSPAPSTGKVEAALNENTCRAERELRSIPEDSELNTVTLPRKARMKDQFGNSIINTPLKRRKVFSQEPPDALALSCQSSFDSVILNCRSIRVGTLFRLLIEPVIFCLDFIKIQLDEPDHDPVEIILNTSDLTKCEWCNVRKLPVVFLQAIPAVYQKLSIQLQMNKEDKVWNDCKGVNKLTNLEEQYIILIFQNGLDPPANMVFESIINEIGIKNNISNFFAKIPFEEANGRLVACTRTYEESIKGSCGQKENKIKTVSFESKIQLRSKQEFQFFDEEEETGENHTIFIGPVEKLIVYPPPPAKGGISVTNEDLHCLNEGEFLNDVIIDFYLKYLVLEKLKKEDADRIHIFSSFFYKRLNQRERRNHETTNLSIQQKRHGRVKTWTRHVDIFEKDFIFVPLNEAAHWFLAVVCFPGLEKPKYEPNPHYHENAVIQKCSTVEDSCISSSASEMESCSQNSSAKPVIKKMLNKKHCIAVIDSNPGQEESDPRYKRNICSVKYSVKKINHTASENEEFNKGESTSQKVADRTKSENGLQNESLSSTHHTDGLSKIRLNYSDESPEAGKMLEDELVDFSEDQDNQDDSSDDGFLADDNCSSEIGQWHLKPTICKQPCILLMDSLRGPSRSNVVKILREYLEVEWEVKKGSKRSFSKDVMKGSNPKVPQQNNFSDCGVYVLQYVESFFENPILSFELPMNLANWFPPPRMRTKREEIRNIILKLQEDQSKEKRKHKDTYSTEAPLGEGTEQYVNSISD

[13] = molecular target: T6, Sentrin-specific protease 8 (Homo sapiens, UniProt Q96LD8); type: functional;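 also: luminescence read-out of SENP8 inhibition, dose-response confirmation following an ultra-high-throughput screen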
T6 sequence (Q96LD8 whole entry): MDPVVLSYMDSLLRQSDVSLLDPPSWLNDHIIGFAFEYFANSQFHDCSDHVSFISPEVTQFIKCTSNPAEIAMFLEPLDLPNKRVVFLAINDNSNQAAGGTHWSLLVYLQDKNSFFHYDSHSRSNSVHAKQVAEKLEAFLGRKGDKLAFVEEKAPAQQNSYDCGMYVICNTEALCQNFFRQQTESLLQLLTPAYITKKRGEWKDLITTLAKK

Chain of Hexokinase-1 (P19367 whole entry): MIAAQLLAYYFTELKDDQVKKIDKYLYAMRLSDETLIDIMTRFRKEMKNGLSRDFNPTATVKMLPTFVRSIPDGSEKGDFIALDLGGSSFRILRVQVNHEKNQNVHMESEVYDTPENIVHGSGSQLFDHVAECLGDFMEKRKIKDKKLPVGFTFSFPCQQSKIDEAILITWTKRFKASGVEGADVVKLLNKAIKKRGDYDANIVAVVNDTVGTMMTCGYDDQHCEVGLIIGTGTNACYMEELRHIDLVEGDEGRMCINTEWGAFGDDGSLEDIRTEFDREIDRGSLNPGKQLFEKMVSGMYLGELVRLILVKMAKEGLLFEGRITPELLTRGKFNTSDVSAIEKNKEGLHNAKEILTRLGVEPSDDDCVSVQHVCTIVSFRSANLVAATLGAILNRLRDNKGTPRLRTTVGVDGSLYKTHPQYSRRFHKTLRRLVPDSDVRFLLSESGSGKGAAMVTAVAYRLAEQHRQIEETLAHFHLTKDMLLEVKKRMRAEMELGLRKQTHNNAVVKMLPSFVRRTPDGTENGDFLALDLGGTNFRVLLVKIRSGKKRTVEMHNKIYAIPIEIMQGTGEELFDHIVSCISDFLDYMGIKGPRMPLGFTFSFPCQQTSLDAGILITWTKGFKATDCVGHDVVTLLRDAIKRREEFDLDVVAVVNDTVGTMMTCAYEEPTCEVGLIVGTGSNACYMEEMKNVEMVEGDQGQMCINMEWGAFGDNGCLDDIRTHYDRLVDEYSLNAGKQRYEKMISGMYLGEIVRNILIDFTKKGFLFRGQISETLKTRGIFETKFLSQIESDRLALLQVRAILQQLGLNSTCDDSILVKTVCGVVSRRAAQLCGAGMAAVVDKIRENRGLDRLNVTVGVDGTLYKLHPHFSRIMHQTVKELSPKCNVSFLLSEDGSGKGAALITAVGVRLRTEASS
Chain of 26S proteasome non-ATPase regulatory subunit 14 (O00487 whole entry): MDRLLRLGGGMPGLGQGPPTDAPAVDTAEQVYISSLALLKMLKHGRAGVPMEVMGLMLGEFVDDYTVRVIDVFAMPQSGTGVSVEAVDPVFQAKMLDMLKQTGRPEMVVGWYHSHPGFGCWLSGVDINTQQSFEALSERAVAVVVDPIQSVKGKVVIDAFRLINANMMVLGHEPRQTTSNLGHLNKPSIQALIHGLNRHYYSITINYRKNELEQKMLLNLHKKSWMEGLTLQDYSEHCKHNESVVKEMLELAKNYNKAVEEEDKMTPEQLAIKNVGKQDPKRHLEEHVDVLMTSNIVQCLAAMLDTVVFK
Chain of SUMO E1/E2 (Q9UBE0 whole entry): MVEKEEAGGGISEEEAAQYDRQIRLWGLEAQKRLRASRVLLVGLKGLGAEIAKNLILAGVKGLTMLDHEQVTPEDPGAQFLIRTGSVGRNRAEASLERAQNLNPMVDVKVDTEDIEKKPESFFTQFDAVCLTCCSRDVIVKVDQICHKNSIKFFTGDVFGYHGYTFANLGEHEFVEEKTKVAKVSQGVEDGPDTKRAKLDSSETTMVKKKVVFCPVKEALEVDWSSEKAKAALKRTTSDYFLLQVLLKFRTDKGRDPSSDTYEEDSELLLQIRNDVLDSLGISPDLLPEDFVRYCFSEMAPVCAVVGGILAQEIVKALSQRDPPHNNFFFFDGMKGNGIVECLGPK
Chain of SUMO E1/E2 (Q9UBT2 whole entry): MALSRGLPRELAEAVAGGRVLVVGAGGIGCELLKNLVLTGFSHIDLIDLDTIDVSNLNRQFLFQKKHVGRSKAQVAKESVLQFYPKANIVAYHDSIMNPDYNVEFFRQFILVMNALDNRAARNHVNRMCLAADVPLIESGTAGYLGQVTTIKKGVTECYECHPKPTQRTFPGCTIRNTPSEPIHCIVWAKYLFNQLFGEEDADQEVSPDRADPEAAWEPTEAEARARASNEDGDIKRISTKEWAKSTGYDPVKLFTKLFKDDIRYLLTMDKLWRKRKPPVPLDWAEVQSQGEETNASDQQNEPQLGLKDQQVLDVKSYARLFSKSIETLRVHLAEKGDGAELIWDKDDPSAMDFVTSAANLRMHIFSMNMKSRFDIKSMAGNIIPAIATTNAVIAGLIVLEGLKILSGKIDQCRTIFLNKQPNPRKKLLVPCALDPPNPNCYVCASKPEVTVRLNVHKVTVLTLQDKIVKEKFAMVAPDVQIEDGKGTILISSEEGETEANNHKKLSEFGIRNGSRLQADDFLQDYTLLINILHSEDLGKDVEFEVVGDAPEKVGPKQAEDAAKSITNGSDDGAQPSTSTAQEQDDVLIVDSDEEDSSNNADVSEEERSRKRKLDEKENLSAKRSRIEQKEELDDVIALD
Chain of SUMO E1/E2 (P63279 whole entry): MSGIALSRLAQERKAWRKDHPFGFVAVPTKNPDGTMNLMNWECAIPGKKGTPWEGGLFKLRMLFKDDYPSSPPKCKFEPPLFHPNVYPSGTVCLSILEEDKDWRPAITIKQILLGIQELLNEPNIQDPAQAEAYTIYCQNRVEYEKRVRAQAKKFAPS
Chain of 72 kDa type IV collagenase (P08253 whole entry): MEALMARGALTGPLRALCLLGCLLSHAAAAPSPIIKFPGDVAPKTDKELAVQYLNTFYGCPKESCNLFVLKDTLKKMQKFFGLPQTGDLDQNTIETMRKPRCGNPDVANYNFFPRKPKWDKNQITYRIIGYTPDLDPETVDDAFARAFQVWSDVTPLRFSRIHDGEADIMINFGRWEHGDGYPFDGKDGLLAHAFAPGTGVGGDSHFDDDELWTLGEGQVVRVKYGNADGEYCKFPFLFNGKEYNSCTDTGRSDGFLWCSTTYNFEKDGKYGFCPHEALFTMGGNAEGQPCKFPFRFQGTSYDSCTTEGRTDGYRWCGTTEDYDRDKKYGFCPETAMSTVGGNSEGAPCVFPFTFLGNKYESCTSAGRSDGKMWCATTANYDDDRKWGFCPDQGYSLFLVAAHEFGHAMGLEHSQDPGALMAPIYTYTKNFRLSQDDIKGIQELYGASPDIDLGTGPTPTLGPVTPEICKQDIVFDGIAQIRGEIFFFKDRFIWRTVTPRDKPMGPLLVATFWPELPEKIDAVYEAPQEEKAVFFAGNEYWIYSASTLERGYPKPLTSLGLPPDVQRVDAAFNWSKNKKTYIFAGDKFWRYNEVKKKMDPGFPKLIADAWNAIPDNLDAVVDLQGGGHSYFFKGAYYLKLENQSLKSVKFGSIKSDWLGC

For `C/C(=C\C(=O)OCCCCCCCCC(=O)O)C[C@@H]1OC[C@H](C[C@@H]2O[C@H]2[C@@H](C)[C@H](C)O)[C@@H](O)[C@H]1O` [MUPIROCIN], the EC50 [1] was > 150 µM (inactive), the EC50 [2] was < 0.06 µM (active) and the EC50 (Streptokinase A) was 0.423 µM (active). For the same molecule, the EC50 [3] was > 38 µM (not active), the EC50 (Streptococcus) was < 0.06 µM (active) and the AC50 (Escherichia coli) was 4.99 µM (active).
With `CC1(C)CC(/C=C/c2ccccc2)=Nc2ccccc2N1` the AC50 (HeLa) was 37.3 µM (active).
For `CCN1CCc2c(C#N)c(N3CCCCC3)nc(NCc3ccccc3)c2C1`, the EC50 [4] was 20.1 µM (active), the EC50 [5] was 17.9 µM (active) and the CC50 (Vero) was > 25 µM (active).
For `Cc1cc(C)c2nc(NCc3ccccc3O)sc2c1`, the AC50 (HeLa) was 42.4 µM (active).
With `Cc1occc1C(=O)/C(C#N)=C/c1ccc(O)c(Br)c1` the AC50 [6] was 7.25 µM (active), the IC50 [7] was 9.83 µM (active) and the IC50 [8] was > 100 µM (inactive). For the same molecule, the IC50 (Prothrombin) was 12.1 µM (active).
With `Cc1ccc(Sc2nnc(Cc3ccccc3)c3ccccc23)cc1` the EC50 [9] was 1.95 µM (active), the EC50 [10] was > 60 µM (not active) and the CC50 (Vero) was > 25 µM (active).
With `COc1ccc2c(c1)C(NC(C)=O)C(=O)N2CCN1CCOCC1` (stereo not drawn) the IC50 (SUMO E1/E2) was 9.45 µM (active), the IC50 (Hexokinase-1) was > 80 µM (inactive) and the IC50 (Hexokinase HKDC1) was 8.31 µM (active).
For `COc1cc2c(cc1OC)-c1cc(Nc3ncn[nH]3)nc(=O)n1CC2`, the IC50 (Hexokinase-1) was > 80 µM (inactive) and the IC50 (Hexokinase HKDC1) was > 80 µM (inactive).
With `COc1c(O)ccc(/C=C(\C#N)c2nc3ccccc3[nH]2)c1[N+](=O)[O-]` the IC50 (Caspase-3) was 31.1 µM (active), the IC50 [11] was 15.1 µM (active) and the IC50 [12] was 25.9 µM (active). For the same molecule, the IC50 [13] was 35.9 µM (active) and the AC50 [6] was 2.77 µM (active).
